38 compounds from US8741942B2, “Inhibitors of cellular necrosis” (President and Fellows of Harvard College, priority 2003, dated 2014) can be followed below.

The subject of data set [1] is human FAD-deficient Jurkat T cells challenged with human TNF-alpha. In words: Anti-necrotic activity, FADD-/- Jurkat T cells challenged with human TNF-alpha. Type of data set: cell-based. As to conditions: 10 ng/ml human TNFα, CellTiter-Glo ATP assay, read-out: EC50 (μM) for cell viability. Here is the method: Compounds were screened for anti-necrotic activity utilizing human FAD-deficient Jurkat T cells challenged with human TNF-alpha. FADD−/− Jurkat cells (Juo P, et al. Cell Growth Differ. 1999, 10(12):797-804) were seeded at the density of 5*10^5 cells/mL into 96 well white plates (Costar) at 100 μL/well. Cells were treated in duplicate with various concentrations of test compounds in the presence or absence of 10 ng/ml human TNFα (Cell Sciences). After 30 hours viability of the cells was determined using luminescent ATP-based cell viability assay (CellTiter-Glo, Promega). Percentage of protection by the compound was calculated as a ratio of the cps (counts per second) value in the well treated with the test compound and TNFα to the cps value in the well treated with the compound alone.
Background: In ATP-based viability assays light output follows the ATP content of the culture.

The test system of a further data set is human B cell line U-937. In words: Library screen for inhibition of cell death induced by TNF-α in the presence of zVAD. The class given is cell-based. The conditions noted are these: U-937 cells. The text has this:
(§1) After a cell receives an initial assault either apoptotic, necrotic, or both apoptotic and necrotic mechanisms of cell death may be activated. The present example focuses on the necrosis pathway. Several chemical assaults were used to induce cell death, including exposure to tumor necrosis factor alpha (TNF-α), Fas ligand or β-amyloid protein. Various cell types were also used, including human neuroblastoma cells (SH-SY5Y) and human Jurkat T cells. In order to block the apoptosis mechanism, a general caspase inhibitor, N-benzyloxycarbonyl-valine-alanine-aspartic acid-(OMe) fluoromethyl ketone (zVAD, Polyerino, A. J.; Patterson, S. D. J. Biol. Chem. 1997, 272, 7013-7021), was used. […] Resulting cell death occurs by a necrosis-like mechanism (Holler, N., et al. Nature Immunol. 2000, 1, 489-495; Kawahara, A., et al. J. Cell Biol. 1998, 143, 1353-1360). Experimental compounds were applied to the cells in attempts to rescue them from this necrotic death. Therefore, compounds found to restore cell viability using this protocol are inhibitors of the necrosis pathway.
Compound libraries were screened for inhibition of cell death induced by TNF-α in the presence of zVAD in human B cell line U-937.

For data set [2], the system named is human Jurkat T cells challenged with Fas ligand and treated with zVAD. In words: Anti-necrotic activity, human Jurkat T cells challenged with Fas ligand and treated with zVAD. Type of data set: cell-based. The conditions noted are these: viability after 36 h by CellTiter ATP assay, read-out: EC50 (μM) for cell viability.
Source text: as §1
Compounds were also tested in another necrosis assay utilizing human Jurkat T cells, Fas ligand to induce cell death, and zVAD to inhibit the apoptosis pathway. After 36 h, cell viability was measure by the commercial CellTiter ATP cell viability assay (Promega).
Compounds were screened for anti-necrotic activity utilizing human Jurkat T cells challenged with Fas ligand and treated with zVAD to inhibit the apoptosis pathway.

Counter-ions that a name gives are not always drawn. Like-named read-outs stand apart in the source and are kept apart here.

In general, melting point refers to the temperature of the solid-liquid transition. The EC50 is the concentration that produces a half-maximal response.

The compound `O=C1NC(=O)C(Cc2c[nH]c3ccccc23)N1` (centres unmarked) (as salt: potassium) showed a melting point of 229 to 232 °C.
As for `CN1C(=O)NC(Cc2csc3ccccc23)C1=O` (racemic) [Compound 893-39, 5-benzo[b]thiophen-3-ylmethyl-3-methyl-imidazolidine-2,4-dione], the EC50 in data set [1] (Homo sapiens, Jurkat, 30 h) amounted to 5.4 µM.
As to `CN1C(=O)C(Cc2c[nH]c3ccccc23)NC1=S` (centres unmarked) [Compound 1], in the data set on human B cell line U-937, the “inhibition of cell death induced by TNF-α in the presence of zVAD” value is “inhibitor of necrosis”.
Regarding `CN1C(=O)C(Cc2c[nH]c3ccccc23)NC1=S` (centres unmarked) [Compound 893-01, 5-(1H-Indol-3-ylmethyl)-3-methyl-2-thioxo-imidazolidin-4-one], in data set [2], the EC50 amounted to 6 µM.
For `CN1C(=O)C(C)(Cc2c[nH]c3ccccc23)NC1=S` (centres unmarked) [Compound 893-02, 5-(1H-Indol-3-ylmethyl)-3,5-dimethyl-2-thioxo-imidazolidin-4-one], the melting point lay in the range of 179 to 182 °C.
The compound `CN1C(=O)C(Cc2c[nH]c3ccccc23)N(C)C1=S` (centres unmarked) [Compound 893-03, 5-(1H-Indol-3-ylmethyl)-1,3-dimethyl-2-thioxo-imidazolidin-4-one] displayed a melting point of 132 to 135 °C.
`CCN1C(=O)NC(Cc2c[nH]c3ccccc23)C1=O` (centres unmarked) [Compound 893-04, 3-Ethyl-5-(1H-indol-3-ylmethyl)-imidazolidine-2,4-dione]: in data set [2], the concentration for a half-maximal effect (EC50) stood at 10 µM.
`CN1C(=O)C(Cc2c[nH]c3cc(F)ccc23)NC1=S` (centres unmarked) [Compound 893-05, 5-(6-Fluoro-1H-Indol-3-ylmethyl)-3-methyl-2-thioxo-imidazolidin-4-one]: the melting point fell in the range of 126 to 129 °C. Moreover, in data set [2], the half-maximal effective concentration (EC50) was 2.3 µM.
The compound `COc1ccc2[nH]cc(CC3NC(=S)N(C)C3=O)c2c1` (centres unmarked) [Compound 893-06, 5-(5-Methoxy-1H-Indol-3-ylmethyl)-3-methyl-2-thioxo-imidazolidin-4-one] showed a melting point of 181 to 185 °C.
`CN1C(=O)C(Cc2c[nH]c3ccc(O)cc23)NC1=S` (centres unmarked) [Compound 893-07, 5-(5-Hydroxy-1H-Indol-3-ylmethyl)-3-methyl-2-thioxo-imidazolidin-4-one] came in with a melting point of 166 to 168 °C.
`CN1C(=O)C(Cc2cn(C)c3ccccc23)NC1=S` (centres unmarked) [Compound 893-08, 3-Methyl-5-(1-methyl-1H-Indol-3-ylmethyl)-2-thioxo-imidazolidin-4-one]: the melting point lay in the range of 155 to 157 °C. Moreover, in data set [2], the 50% effective concentration (EC50) is 35 µM.
Compound `CN1C(=O)C(Cc2c[nH]c3c(F)cccc23)NC1=S` (centres unmarked) [Compound 893-09, 5-(7-Fluoro-1H-Indol-3-ylmethyl)-3-methyl-2-thioxo-imidazolidin-4-one] had a melting point of 217 to 220 °C. Further, the half-maximal effective concentration (EC50) in data set [2] was determined as 4 µM.
In the case of `CN1C(=O)C(Cc2c[nH]c3c(Cl)cccc23)NC1=S` (centres unmarked) [Compound 893-10, 5-(7-Chloro-1H-indol-3-ylmethyl)-3-methyl-2-thioxo-imidazolidin-4-one], in data set [2], the EC50 was found to be 1.5 µM.
Still for that read-out and setting: then `CN1C(=O)C(Cc2c[nH]c3cc(Cl)ccc23)NC1=S` (centres unmarked) [Compound 893-11, 5-(6-Chloro-1H-indol-3-ylmethyl)-3-methyl-2-thioxo-imidazolidin-4-one], with 67 µM.
On to `CN1C(=O)C(Cc2c[nH]c3c(Br)cccc23)NC1=S` (centres unmarked) [Compound 893-12, 5-(7-Bromo-1H-indol-3-ylmethyl)-3-methyl-2-thioxo-imidazolidin-4-one], for which the melting point was 230 to 233 °C. Besides, the 50% effective concentration (EC50) in data set [2] amounted to 1.8 µM.
In the case of `COc1cccc2c(CC3NC(=S)N(C)C3=O)c[nH]c12` (centres unmarked) [Compound 893-13, 5-(7-Methoxy-1H-indol-3-ylmethyl)-3-methyl-2-thioxo-imidazolidin-4-one], the melting point is 219 to 222 °C. The EC50 in data set [2] was 10.3 µM.
As to `CN1C(=O)C(Cc2c[nH]c3c(Cl)cc(S(C)(=O)=O)cc23)NC1=S` (centres unmarked) [Compound 893-16, 5-(7-Chloro-5-methanesulfonyl-1H-indol-3-ylmethyl)-3-methyl-2-thioxo-imidazolidin-4-one], the melting point lay within 242 to 245 °C.
With `CN1C(=O)NC(Cc2c[nH]c3ccccc23)C1=O` (centres unmarked) [Compound 893-20, 3-Methyl-5-(1H-indol-3-ylmethyl)-imidazolidine-2,4-dione], the EC50 in data set [2] stood at 6 µM.
Turning to `CN1C(=O)C(Cc2csc3ccccc23)NC1=S` (centres unmarked) [Compound 893-21, 5-Benzo[b]thiophen-3-ylmethyl-3-methyl-2-thioxo-imidazolidin-4-one], the half-maximal effective concentration (EC50) in data set [1] (Homo sapiens, Jurkat, 30 h) worked out at 0.845 µM; in data set [2], 8 µM.
For the compound `CN1C(=O)NC(Cc2c[nH]c3ccccc23)C1=O` (centres unmarked) [Compound 893-22, 5-(1H-Indol-3-ylmethyl)-3-methylimidazolidine-2,4-dione], the EC50 in data set [1] (Homo sapiens, Jurkat, 30 h) was 0.439 µM.
As to `Cc1cccc2c(CC3NC(=O)N(C)C3=O)c[nH]c12` (centres unmarked) [Compound 893-23], the EC50 in data set [1] (30 hours) amounted to 0.095 µM.
`COc1cccc2c(CC3NC(=O)N(C)C3=O)c[nH]c12` (centres unmarked) [Compound 893-25]: the EC50 in data set [1] (Homo sapiens, Jurkat, 30 h) worked out at 0.229 µM.
For `CN1C(=O)NC(Cc2c[nH]c3c(F)cccc23)C1=O` (centres unmarked) [Compound 893-28], the EC50 in data set [1] (Homo sapiens, Jurkat, 30 h) turned out to be 0.324 µM.
Take `CN1C(=O)N[C@@H](Cc2c[nH]c3c(Cl)cccc23)C1=O` [Compound 893-31]: the concentration for a half-maximal effect (EC50) in data set [1] (Homo sapiens, Jurkat, 30 h) was 0.303 µM.
Still for that read-out and setting: then `CN1C(=O)N[C@H](Cc2c[nH]c3c(Cl)cccc23)C1=O` [Compound 893-32], with 0.078 µM; and `CN1C(=O)NC(Cc2c[nH]c3c(Cl)cc(Cl)cc23)C1=O` (centres unmarked) [Compound 893-33], with above 10 µM.
In the case of `CCN1C(=O)NC(Cc2c[nH]c3c(Cl)cccc23)C1=O` (centres unmarked) [Compound 893-34], the concentration giving a half-maximal response (EC50) in data set [1] (Homo sapiens, Jurkat, 30 h) turned out to be 0.154 µM.
As to `CN1C(=O)C(Cc2c[nH]c3c(Cl)cccc23)N(C)C1=O` (centres unmarked) [Compound 893-36, 5-(7-Chloro-1H-indol-3-ylmethyl)-1,3-dimethyl-imidazolidine-2,4-dione], in data set [1] (Homo sapiens, Jurkat, 30 h), the EC50 is above 10 µM.
Take `CN1C(=O)NC(Cc2cn(C)c3c(Cl)cccc23)C1=O` (centres unmarked) [Compound 893-37, 5-(7-Chloro-1-methyl-1H-indol-3-ylmethyl)-3-methyl-imidazolidine-2,4-dione]: the EC50 in data set [1] (Homo sapiens, Jurkat, 30 h) is 1.8 µM.
As for `Cc1cccc2c(CC3NC(=O)N(C)C3=O)c[nH]c12` (centres unmarked) [Compound 893-38], the EC50 in data set [1] (30 hours) is above 10 µM.
In the case of `COCCOc1cccc2c(CC3NC(=O)N(C)C3=O)c[nH]c12` (centres unmarked) [Compound 893-41], the EC50 in data set [1] (Homo sapiens, Jurkat, 30 h) was above 10 µM.
Take `CN1C(=O)NC(Cc2c[nH]c3c(OCc4ccccc4)cccc23)C1=O` (centres unmarked) [Compound 893-42]: in data set [1] (Homo sapiens, Jurkat, 30 h), the EC50 was above 10 µM.
As to `Cc1[nH]c2c(Cl)cccc2c1CC1NC(=O)N(C)C1=O` (centres unmarked) [Compound 893-43], the concentration for a half-maximal effect (EC50) in data set [1] (Homo sapiens, Jurkat, 30 h) was above 10 µM.
As to `CC(C)N1C(=O)NC(Cc2c[nH]c3c(Cl)cccc23)C1=O` (centres unmarked) [Compound 893-44], in data set [1] (Homo sapiens, Jurkat, 30 h), the 50% effective concentration (EC50) was above 10 µM.
Take `CN1C(=O)NC(Cc2c[nH]c3c(Cl)c(Cl)ccc23)C1=O` (centres unmarked) [Compound 893-50]: the EC50 in data set [1] (Homo sapiens, Jurkat, 30 h) is above 10 µM.
For the compound `O=C1NC(Cc2c[nH]c3c(Cl)cccc23)CO1` (centres unmarked) [Compound 893-51, 4-(7-chloro-1H-indol-3-ylmethyl)-oxazolidin-2-one], in data set [1] (Homo sapiens, Jurkat, 30 h), the EC50 was above 10 µM.
The same measure, in the same setting: then `CN1CC(Cc2c[nH]c3c(Cl)cccc23)NC1=O` (centres unmarked) [Compound 893-52, 4-(7-chloro-1H-indol-3-ylmethyl)-1-methyl-imidazolidin-2-one], with above 10 µM; and `CN1C(=O)OC(Cc2c[nH]c3c(Cl)cccc23)C1=O` (centres unmarked) [Compound 893-53, 5-(7-chloro-1H-indol-3-ylmethyl)-3-methyl-oxazolidine-2,4-dione], with 0.359 µM.
